Experimental data as given in patent US20020183313A1, “1,4-benzodiazepinones and their uses as CCK antagonists” (Fujisawa Pharmaceutical Co., Ltd., priority 1996, published 2002).

Row | melting point | Structure (SMILES)
1 | 126.7 to 145.2 °C | Cc1ccccc1C(=O)CN1C(=O)C(NC(=O)c2cc3ccccc3[nH]2)N=C(C2CCCCC2)c2cccc(C)c21 (racemic) [24(2), (3RS)-5-Cyclohexyl-2,3-dihydro-3-(indol-2-yl)carbonylamino-9-methyl-1-(2-methylphenacyl)-1H-1,4-benzodiazepin-2-one]
2 | 214.5 to 217.3 °C | CC1=NC(NC(=O)Nc2cccc(C)c2)C(=O)N(CC(=O)N2CCC(N3CCCCC3)CC2)c2c(C)cccc21 (racemic) [48-3(1), N-[(3RS)-1-[4-(Piperidino)piperidin-1-yl]carbonylmethyl-5,9-dimethyl-2,3-dihydro-2-oxo-1H-1,4-benzodiazepin-3-yl]-N′-(3-methylphenyl)urea]
3 | 163.2 to 164.9 °C | CC1=NC(NC(=O)Nc2cccc(C)c2)C(=O)N(CC(=O)N2CCC(O)(c3ccccc3)CC2)c2c(C)cccc21 (racemic) [48-3(6), N-[(3RS)-1-(4-Hydroxy-4-phenylpiperidin-1-yl)carbonylmethyl-5,9-dimethyl-2,3-dihydro-2-oxo-1H-1,4-benzodiazepin-3-yl]-N′-(3-methylphenyl)urea]
4 | 243.4 to 244.4 °C | CC1=NC(NC(=O)Nc2cccc(C)c2)C(=O)N(CC(=O)NC(C)(C)C)c2c(C)cccc21 (racemic) [48-3(11), N-[(3RS)-2,3-Dihydro-5,9-dimethyl-1-(N-tert-butylamino-carbonylmethyl)-2-oxo-1H-1,4-benzodiazepin-3-yl]-N′-(3-methylphenyl)urea]
5 | 221.7 to 224.2 °C | CC1=NC(NC(=O)Nc2cccc(C)c2)C(=O)N(CC(=O)N2CCN(CCO)CC2)c2c(C)cccc21 (racemic) [48-3(14), N-[(3RS)-2,3-Dihydro-1-[4-(2-hydroxyethyl)piperazin-1-yl]carbonylmethyl-5,9-dimethyl-2-oxo-1H-1,4-benzodiazepin-3-yl]-N′-(3-methylphenyl)urea]
6 | 226.9 to 228.1 °C | CC1=NC(NC(=O)Nc2cccc(C)c2)C(=O)N(CC(=O)N(CC(C)C)CC(C)C)c2c(C)cccc21 (racemic) [48-3(15), N-[(3 RS)-2,3-Dihydro-1-(N,N-diisobutylamino)carbonylmethyl-5,9-dimethyl-2-oxo-1H-1,4-benzodiazepin-3-yl]-N′-(3-methylphenyl)urea]
7 | 160.5 to 161.1 °C | CC1=NC(NC(=O)Nc2cccc(C)c2)C(=O)N(CC(=O)N(CCO)CCO)c2c(C)cccc21 (racemic) [48-3(16), N-[(3RS)-2,3-Dihydro-1-(N,N-bis-(2-hydroxyethyl)amino)-carbonylmethyl-5,9-dimethyl-2-oxo-1H-1,4-benzodiazepin-3-yl]-N′-(3-methylphenyl)urea]
8 | 147.9 to 149.1 °C | Cc1cccc(NC(=O)NC2N=C(CN(C)C)c3cccc(C)c3N(CC(=O)N3CCCCCCC3)C2=O)c1 (racemic) [71-3(1), N-[(3RS)-1-(azacyclooctan-1-yl)carbonylmethyl-2,3-dihydro-5-(N,N-dimethylamino)methyl-9-methyl-2-oxo-1H-1,4-benzodiazepin-3-yl]-N′-(3-methylphenyl)urea]
9 | 137.9 to 141 °C | Cc1cccc(NC(=O)NC2N=C(C=O)c3cccc(C)c3N(CC(=O)N3CCCCCCC3)C2=O)c1 (racemic) [71-3(2), N-[(3RS)-1-(azacyclooctan-1-yl)carbonylmethyl-2,3-dihydro-5-formyl-9-methyl-2-oxo-1H-1,4-benzodiazepin-3-yl]-N′-(3-methylphenyl)urea]
10 | 175.2 to 177.7 °C | CCOC(=O)C=CC1=NC(NC(=O)Nc2cccc(C)c2)C(=O)N(CC(=O)N2CCCCCCC2)c2c(C)cccc21 (racemic) [75(1)-1, N-[(3RS)-1-(azacyclooctan-1-yl)carbonylmethyl-2,3-dihydro-5-((EZ)-2-(ethoxycarbonyl)ethenyl)-9-methyl-2-oxo-1H-1,4-benzodiazepin-3-yl]-N′-(3-methylphenyl)urea]
11 | 129.3 to 134.1 °C | Cc1cccc(NC(=O)NC2N=C(C=CC(=O)O)c3cccc(C)c3N(CC(=O)N3CCCCCCC3)C2=O)c1 (racemic) [75(1)-2, N-[(3RS)-1-(azacyclooctan-1-yl)carbonylmethyl-2,3-dihydro-5-((EZ)-2-carboxylethenyl)-9-methyl-2-oxo-1H-1,4-benzodiazepin-3-yl]-N′-(3-methylphenyl)urea]
12 | 219 to 221 °C (dec.) | CC(=O)c1sccc1CN1C(=O)C(NC(=O)Nc2cccc(C)c2)N=C(C(C)C)c2ccccc21 (racemic) [Example 2, N-[(3RS)-1-(2-acetylthiophen-3-yl)methyl-2,3-dihydro-5-isopropyl-2-oxo-1H-1,4-benzodiazepin-3-yl]-N′-(3-methylphenyl)urea]
13 | 215 to 218 °C | CC(=O)c1sccc1CN1C(=O)C(NC(=O)Nc2cccc(C)c2)N=C(CC(C)C)c2ccccc21 (racemic) [Example 6(3), N-[(3RS)-2,3-dihydro-5-(2-methylpropyl)-1-(2-methylcarbonylthiophen-3-yl)methyl-2-oxo-1,4-benzodiazepin-3-yl]-N′-(3-methylphenyl)urea]
14 | 223.5 to 224.2 °C | Cc1cccc2c1N(CCO)C(=O)C(NC(=O)Nc1cccc(-c3nnn[nH]3)c1)N=C2C1CCCCC1 (racemic) [Example 21-2, N-[(3RS)-5-Cyclohexyl-2,3-dihydro-1-(2-hydroxyethyl)-9-methyl-2-oxo-1H-1,4-benzodiazepin-3-yl]-N′-[3-(tetrazol-5-yl)phenyl]urea]
15 | 128.4 to 136.2 °C | CC1=NC(NC(=O)Nc2cccc(C)c2)C(=O)N(CC(=O)c2ccccc2C)c2c(C)cccc21 (racemic) [Example 37, N-[(3RS)-2,3-Dihydro-5,9-dimethyl-1-(2-methylphenacyl)-2-oxo-1H-1,4-benzodiazepin-3-yl]-N′-(3-methylphenyl)urea]
16 | 179.6 to 181.2 °C | CC1=NC(NC(=O)Nc2cccc(C)c2)C(=O)N(CC(=O)C(C)(C)C)c2c(C)cccc21 (racemic) [Example 41, N-[(3RS)-2,3-Dihydro-5,9-dimethyl-1-tert-butylcarbonylmethyl-2-oxo-1H-1,4-benzodiazepin-3-yl]-N′-(3-methylphenyl)urea]
17 | 125.1 to 127.5 °C | CCC(=O)CN1C(=O)C(NC(=O)Nc2cccc(C)c2)N=C(C)c2cccc(C)c21 (racemic) [Example 44, N-[(3RS)-2,3-Dihydro-1-ethylcarbonylmethyl-5,9-dimethyl-2-oxo-1H-1,4-benzodiazepin-3-yl]-N′-(3-methylphenyl)urea]
18 | 126.1 to 127.7 °C | CC(=O)CN1C(=O)C(NC(=O)Nc2cccc(C)c2)N=C(C)c2cccc(C)c21 (racemic) [Example 46, N-[(3RS)-2,3-Dihydro-5,9-dimethyl-1-methylcarbonylmethyl-2-oxo-1H-1,4-benzodiazepin-3-yl]-N′-(3-methylphenyl)urea]

Row | Structure (SMILES) | melting point
19 | CC(=O)OCCN1C(=O)C(NC(=O)Nc2cccc(-c3nnn[nH]3)c2)N=C(C2CCCCC2)c2cccc(C)c21 (racemic) [Example 21-1, N-[(3RS)-1-(2-Acetoxyethyl)-5-cyclohexyl-2,3-dihydro-9-methyl-2-oxo-1H-1,4-benzodiazepin-3-yl]-N′-[3-(tetrazol-5-yl)phenyl]urea] | 165.2 to 168.4 °C
